Each structure is given as a SMILES string.

Experiment [1] concerns the target T1, GK from Bacillus stearothermophilus (Geobacillus stearothermophilus, UniProt A0ACH1EBP7).
T1 construct: coupled glycerol phosphate oxidase/peroxidase test
The experiment can be described thus: Comparative investigation of inhibitors, reaction rate ΔE/min (Table 1). It is filed as biochemical. The conditions noted are these: sample glycerol 6 mMole/liter, 1:100, 25° C., 546 nm. The method, then: (§1) Comparative investigation of various inhibitors according to the present invention with GK of varying origin: […]
(§2) tris/HCl 0.1 mole/litre, pH 7.6
(§3) glycerol phosphate oxidase
(§4) glycerol kinase 2.0 U/ml.
(§5) magnesium sulphate heptahydrate
(§6) 4-chlorophenol 3.5 mMole/litre
(§7) 4-aminoantipyrine 0.35 mMole/litre
(§8) Sample: aqueous glycerol solution 6 mMole/liter sample/reagent ratio 1:100 (20 μl./2 ml.)
(§9) measurement wavelength 546 nm. (ΔE/min. in each case read off from the linear region)

A further experiment has as its target GK from Escherichia coli (Escherichia coli, UniProt P0A6F3). The experiment can be described thus: Comparative investigation of inhibitors, reaction rate ΔE/min (Table 2). The format is biochemical. The note with it: sample glycerol 6 mMole/liter, 1:100, 25° C., 546 nm. The method, then:
as §1, §2, §3, §4, §5, §6, §7, §8, §9

GK from Escherichia coli, sequence (P0A6F3 whole entry): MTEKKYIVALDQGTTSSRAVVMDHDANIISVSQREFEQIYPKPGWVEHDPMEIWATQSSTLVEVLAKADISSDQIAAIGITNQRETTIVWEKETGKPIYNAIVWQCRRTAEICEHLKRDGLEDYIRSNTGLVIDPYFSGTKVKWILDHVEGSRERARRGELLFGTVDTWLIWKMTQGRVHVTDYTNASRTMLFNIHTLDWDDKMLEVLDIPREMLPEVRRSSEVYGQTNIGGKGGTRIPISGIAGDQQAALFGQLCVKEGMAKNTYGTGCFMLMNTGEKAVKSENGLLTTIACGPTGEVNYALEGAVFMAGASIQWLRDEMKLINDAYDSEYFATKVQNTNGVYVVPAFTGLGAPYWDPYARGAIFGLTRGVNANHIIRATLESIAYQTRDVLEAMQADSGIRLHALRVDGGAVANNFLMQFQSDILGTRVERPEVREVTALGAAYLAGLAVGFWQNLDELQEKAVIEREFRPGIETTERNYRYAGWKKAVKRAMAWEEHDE
T1 sequence (A0ACH1EBP7 1-496): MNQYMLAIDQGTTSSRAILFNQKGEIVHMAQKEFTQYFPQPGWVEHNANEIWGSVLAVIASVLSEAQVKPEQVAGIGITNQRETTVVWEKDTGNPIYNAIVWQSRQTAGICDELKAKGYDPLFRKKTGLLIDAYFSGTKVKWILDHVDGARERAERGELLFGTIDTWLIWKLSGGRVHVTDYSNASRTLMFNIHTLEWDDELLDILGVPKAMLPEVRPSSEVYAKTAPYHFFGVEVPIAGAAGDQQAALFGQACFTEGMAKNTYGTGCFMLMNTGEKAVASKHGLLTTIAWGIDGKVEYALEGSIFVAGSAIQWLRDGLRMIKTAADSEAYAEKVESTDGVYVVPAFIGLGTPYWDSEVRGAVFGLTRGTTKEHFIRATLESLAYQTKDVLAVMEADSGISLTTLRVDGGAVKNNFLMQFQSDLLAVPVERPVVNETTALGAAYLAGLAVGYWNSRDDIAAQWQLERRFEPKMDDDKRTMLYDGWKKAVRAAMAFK

In the case of `O=C[C@@H](O)[C@H](O)[C@H](O)CO` [D-arabinose], the ΔE/min in experiment [1] (inhibitor 10 mMol/l) was 0.426 min⁻¹; in experiment [1] (inhibitor 20 mMol/l) it was 0.349 min⁻¹; in experiment [1] (inhibitor 50 mMol/l) it was 0.249 min⁻¹; in experiment [1] (inhibitor 100 mMol/l) it was 0.121 min⁻¹; at GK from Escherichia coli (inhibitor 20 mMol/l), 0.363 min⁻¹; at GK from Escherichia coli (inhibitor 50 mMol/l), 0.302 min⁻¹. Further, the ΔE/min is 0.231 min⁻¹ on GK from Escherichia coli (inhibitor 100 mMol/l) and 0.167 min⁻¹ on GK from Escherichia coli (inhibitor 150 mMol/l).
As to `O=C[C@@H](O)[C@H](O)[C@@H](O)CO` [L-xylose], the ΔE/min in experiment [1] (inhibitor 2 mMol/l) is 0.320 min⁻¹; in experiment [1] (inhibitor 5 mMol/l) it was 0.188 min⁻¹; in experiment [1] (inhibitor 10 mMol/l), 0.105 min⁻¹; in experiment [1] (inhibitor 20 mMol/l), 0.062 min⁻¹; at GK from Escherichia coli (inhibitor 5 mMol/l), 0.228 min⁻¹; at GK from Escherichia coli (inhibitor 10 mMol/l), 0.169 min⁻¹. The ΔE/min stood at 0.118 min⁻¹ at GK from Escherichia coli (inhibitor 20 mMol/l) and 0.072 min⁻¹ on GK from Escherichia coli (inhibitor 50 mMol/l).
In the case of `C[C@H](O)[C@@H](O)[C@@H](O)[C@H](O)C=O` [L-fucose], the ΔE/min came to 0.230 min⁻¹ in experiment [1] (inhibitor 10 mMol/l); 0.153 min⁻¹ in experiment [1] (inhibitor 20 mMol/l); 0.077 min⁻¹ in experiment [1] (inhibitor 50 mMol/l); 0.039 min⁻¹ in experiment [1] (inhibitor 100 mMol/l); 0.352 min⁻¹ on GK from Escherichia coli (inhibitor 20 mMol/l); 0.286 min⁻¹ at GK from Escherichia coli (inhibitor 50 mMol/l). The figures for the ΔE/min on GK from Escherichia coli (inhibitor 100 mMol/l) and on GK from Escherichia coli (inhibitor 150 mMol/l) were 0.209 min⁻¹ and 0.142 min⁻¹, respectively.

(Values after patent publication US4705749A, “Process and reagent for the determination of glycerol with the use of glycerol kinase” (Boehringer Mannheim GmbH, priority 1983, dated 1987).)
